Measured values reported in PMC5410339, “dUTPase inhibition augments replication defects of 5-Fluorouracil” (Oncotarget, 2017).

Key:
[1] = target: T1, dUTPase (Homo sapiens, UniProt P33316); test: malachite green assay of substrate hydrolysis by purified enzyme; type: biochemical
T1 construct: gene DUT; human recombinant dUTPase
T1 sequence (P33316 70-252): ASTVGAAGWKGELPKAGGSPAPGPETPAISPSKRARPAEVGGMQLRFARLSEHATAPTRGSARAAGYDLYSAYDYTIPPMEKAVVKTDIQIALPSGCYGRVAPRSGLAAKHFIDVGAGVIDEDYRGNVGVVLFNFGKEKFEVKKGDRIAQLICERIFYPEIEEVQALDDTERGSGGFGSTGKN

[2] = target: T1, dUTPase; test: malachite green activity assay with dUTP as substrate, purified recombinant enzyme; type: biochemical

Compound | malachite green assay of substrate hydrolysis by purified enzyme [1] | IC50 [2] [nM]
O=c1[nH]c(=O)n([C@H]2C[C@H](O)[C@@H](COP(=O)(O)OP(=O)(O)OP(=O)(O)O)O2)cc1F [5-FdUTP] | 5.5 μM formed PPi per second per μM enzyme | –
O=C(CCCn1ccc(=O)[nH]c1=O)N1CCC[C@H]1C(c1ccccc1)c1ccccc1 [compound 1] | – | 740
CC(NS(=O)(=O)CCCOCn1ccc(=O)[nH]c1=O)c1cccc(OC2CCCC2)c1 (stereo not shown) [compound 2] | – | 25
O=c1ccn([C@H]2C[C@H](O)[C@@H](COP(=O)(O)OP(=O)(O)OP(=O)(O)O)O2)c(=O)[nH]1 [dUTP] | 6.6 μM formed PPi per second per μM enzyme | –
